Source: patent publication US11141371B2, “Extracts of Nannochloropsis sp. and their applications” (Cutech SRL, priority 2014, dated 2021)

Key:
[1] = tested on: human sebaceous glands (hSGs); assay: Sebum (normalized total lipids) of ex-vivo cultured human sebaceous glands; type: cell-based; details: 5 μM
Procedure: Using micro-scissors and tweezers, hSGs were isolated from the pilosebaceous units of a scalp skin sample. They were seeded in 24-well plates at a density of 8 hSGs/well and then cultivated in 500 μl of modified William E medium. After 24 hours of culture, the viability of the hSGs was assessed by means of resazurine assay. […] The control received modified William E medium, while the samples submitted to experimental treatments received the same medium supplemented with the extracts. The culture medium was renewed every other day.

[2] = tested on: IL-1α; assay: IL-1α release by ex-vivo skin stimulated with 2% SDS (ELISA); type: cell-based, human; details: 2% SDS stimulus, lenitive treatment 10 μM; Table 7
Procedure: In order to study the biological activity of the ethanol extract (EtOH) from Nannochloropsis sp. on the inflammatory response of skin to irritation, the experimental protocol hereinafter summarized was adopted: • i. ex-vivo skin samples (7 mm in diameter) were cultivated for 24 hours in 6-well plates (4 skin samples/well) with 2.5 ml/well of modified Williams E medium. The experimental design included the following experimental groups, each comprising 8 skin samples cultivated in 2 wells: • 1. control samples cultivated without receive any stimulus or treatment; • 2. samples stimulated with 2% SDS without subsequent lenitive treatment (negative control); • 3. samples stimulated with 2% SDS and then treated with dexamethasone at 10 μM (positive control). • 4. 2 groups of samples stimulated with 2% SDS and then treated with EtOH extract at 1 and 10 μg/ml respectively; • ii. After 24 hours of culture the culture medium was renewed and the experimental groups 2 to 4 received the irritant stimulus (2% SDS) through topical application of 4 μl of preparation for each skin sample. After 3 hours the stimulus was removed by mean of cotton buds and 4 μl of lenitive treatment was then administered topically to groups 3 to 4. Stimulus treatments were applied in 50% DMSO, while the lenitive treatments were in pure DMSO. • iii.

[3] = tested on: ex-vivo cultured human skin; assay: Melanogenesis in ex-vivo human skin culture (melanin content, Fontana-Masson staining); type: cell-based
Procedure: The adopted culture medium was a modified William-E, and it was renewed at day three of the tissue culture. […] On a daily basis, 4 μl of these extract preparations were applied topically to the cultured skin samples, while the control group received the same quantity of the pure DMSO. After six days of organ culture, histological sections were prepared from the skin samples, and quantitative changes of melanin content were investigated by adopting the Fontana-Masson staining technique. The variation in melanin content was estimated by image analysis of the microphotographs of histological sections of skin.

## COc1cc(CNC(=O)CCCC/C=C/C(C)C)ccc1O [Capsaicin]
[1]; another donor (Table 11)
  Sebum in hSGs as % ratio of the control group value: 66.5%
[1]; another donor (Table 12)
  Sebum in hSGs as % ratio of the control group value: 91.9%
[1]; another donor (Table 13)
  Sebum in hSGs as % ratio of the control group value: 45.6%

## C[C@@H]1C[C@H]2[C@@H]3CCC4=CC(=O)C=C[C@]4(C)[C@@]3(F)[C@@H](O)C[C@]2(C)[C@@]1(O)C(=O)CO [Dexam., dexamethasone]
[2]
  IL-1α: 48.6 pg/mL
  IL-1α release [%], SDS group as reference (100%): 92.2%

## O=c1cc(CO)occ1O [KA, Kojic acid]
[3]; 0.1%, Table 6
  Melanin content as % ratio of the control group performance: 83.2%

## CC1=C(/C=C/C(C)=C/C=C/C(C)=C/C(=O)O)C(C)(C)CCC1 [Retinoic ac., Retinoic acid]
[3]; 10 μM, third donor (Table 5)
  Melanin content as % ratio of the control group performance: 82.4%
[3]; 100 μM, third donor (Table 5)
  Melanin content as % ratio of the control group performance: 88.3%
